Data set [1] can be described thus: Distribution of compounds in liver and blood of CD-1 mice. In kind it is in vivo. To be noted: single oral dose. The protocol: Experimental purpose: distribution of compounds in liver and blood of CD-1 mice was tested;
CD-1 Mice (male, 25-35 g, 6-9 weeks old, Shanghai Slack);
Experimental procedure: after oral administration, the drug was distributed in the liver and blood of rodents, candidate compounds in the experiment were formulated into a clear solution to be administered to mice in a single oral dose. The oral solvent was a certain proportion of an aqueous solution of hydroxypropyl P-cyclodextrin or a physiological saline solution. The concentration of the drug in the liver and blood was measured at 1 hour and 4 hours after administration.

The target in the next data set is VAP-1/SSAO (Homo sapiens (Human), UniProt Q16853). Nature of the data set: VAP-1 cell activity assay (HUVEC or CHO cells transfected with VAP-1/pCDNA (3.1) plasmid, Amplex Red). In kind it is cell-based. To be noted: HUVEC or CHO cells transfected with VAP-1 plasmid; read-out: VAP-1/SSAO Cellular Inhibitory Activity IC50. The protocol: The inhibition of the sample on VAP-1 cell activity was measured by using an Amplex® Red Monoamine Oxidase kit (Invitrogen #A12214).
Sequence of VAP-1/SSAO (Q16853 whole entry): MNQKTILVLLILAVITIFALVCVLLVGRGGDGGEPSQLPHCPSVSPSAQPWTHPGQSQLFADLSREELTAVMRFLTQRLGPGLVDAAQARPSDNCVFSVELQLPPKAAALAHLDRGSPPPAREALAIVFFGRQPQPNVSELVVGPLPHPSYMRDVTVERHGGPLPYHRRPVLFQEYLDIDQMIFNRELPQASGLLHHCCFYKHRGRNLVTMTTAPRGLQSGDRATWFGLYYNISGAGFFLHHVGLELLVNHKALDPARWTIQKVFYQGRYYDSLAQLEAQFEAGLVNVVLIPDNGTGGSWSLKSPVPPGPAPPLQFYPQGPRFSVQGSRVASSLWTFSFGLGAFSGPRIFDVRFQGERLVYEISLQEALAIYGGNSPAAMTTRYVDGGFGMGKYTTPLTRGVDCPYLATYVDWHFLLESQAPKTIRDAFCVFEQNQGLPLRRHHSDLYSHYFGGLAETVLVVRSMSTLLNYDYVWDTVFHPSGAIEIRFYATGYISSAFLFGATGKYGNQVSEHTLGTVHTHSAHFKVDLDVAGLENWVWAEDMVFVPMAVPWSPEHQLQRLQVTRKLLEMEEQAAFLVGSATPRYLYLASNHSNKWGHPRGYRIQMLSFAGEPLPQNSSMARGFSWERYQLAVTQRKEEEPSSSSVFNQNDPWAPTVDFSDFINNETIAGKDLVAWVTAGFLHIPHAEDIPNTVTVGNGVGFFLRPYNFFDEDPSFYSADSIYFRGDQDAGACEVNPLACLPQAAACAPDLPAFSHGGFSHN
The cultured HUVEC or CHO cells were plated into a 6-well plate at a density of 0.8 M/well, placed in a 37° C., 5% CO2 incubator for incubation for 24 hours, and then the cells was transferred with a Lipo2000 reagent and a VAP-1/pCDNA (3.1) plasmid, and liquid was changed for the cells after 5 hours (Lipo2000 was toxic to the cells); after 24 hours, the cells were digested and plated into 384-well plates with a density of 25 μl, 10000 cells/well, and liquid was replaced with medium without FBS for the cells after 6-7 hours, and the cell plates were incubated overnight at 37° C. in a 5% CO2 incubator.
1) Dilution of the compound: serial dilution in 4× gradient was carried out with 100% DMSO, 10 points were diluted, the starting concentration of the to-be-tested compound was 0.5 mM (final concentration was 1 μM); 100 nl of compound solution was transferred to a 384-well cell assay plate with ECHO. Negative control wells: 100 nl of DMSO; background control wells: 100 nl DMSO+25 μL medium.
2) The reaction was carried out in the dark at room temperature for 30 min.
3) Preparation of Amplex Red reagent+HRP+benzylamine substrate working solution: Amplex Red reagent+HRP+benzylamine substrate working solution (200 μM Amplex Red reagent+1 U/mL HRP+1 mM benzylamine): 45 μl of 20 mM Amplex Red reagent mother solution, 22.5 μl of 200 U/ml horseradish peroxidase (HRP) mother solution and 45 ul of 100 mM benzylamine were tanken and added to 4.3875 ml of 1× reaction buffer.
4) After 30 min, 25 μl of the substrate working solution was added to a 384-well plate, and a final concentration was 100 μM Amplex Red reagent+0.5 U/mL HRP+0.5 mM benzylamine, respectively.
5) The reaction was carried out in the dark at room temperature for 60 minutes, and the fluorescence value was measured by Envision: the excitation wave was 535 nm, and the emission wave was 590 nm.
6) Inhibition rate calculation formula: % inhibition rate=(1−(test hole minus background−positive control well minus background)/(negative control well minus background-positive control well minus background))*100
7) The data were analyzed with Prism. The IC50 of the sample against VAP-1 cells was calculated.

For another data set, the target named is CYP1A2 (Homo sapiens (Human), UniProt P05177). Nature of the data set: Human liver microsomal CYP inhibition assay. In kind it is in vitro ADME. To be noted: human liver microsomes, 5-in-1 probe substrate. Here is the method:
(§1) The purpose of the study was to evaluate the inhibition of the test sample on human liver microsomal cytochrome P450 isozymes (CYP1A2, CYP2C9, CYP2C19, CYP2D6, and CYP3A4) by using the CYP isozyme 5-in-1 probe substrate.
(§2) Mixed human liver microsomes (HLM) were purchased from Corning Inc. (Steuben, N.Y., USA) or XenoTech, LLC. (Lenexa, Kans., USA) or other suppliers, and stored at the temperature below −70° C. prior to use.
(§3) A series of diluted test sample working solution were added to an incubation system containing cofactors of human liver microsomes, a probe substrate and a circulation system, and the control without a test substance but containing a solvent was used as enzyme activity control (100%). The concentration of the metabolite produced by the probe sample in the sample was determined by liquid chromatography-tandem mass spectrometry (LC-MS/MS). Non-linear regression analysis was performed on the concentration of the average percent activity of the test sample by using SigmaPlot (V.11). The IC50 value was calculated by a three-parameter or four-parameter recursive logarithmic equation.
In general terms: Microsomes from liver hold many membrane-bound enzymes, among them those of drug oxidation.

The target in a further data set is CYP3A4 (Homo sapiens (Human), UniProt P08684). Nature of the data set: Human liver microsomal CYP inhibition assay. To be noted: human liver microsomes, 5-in-1 probe substrate. In kind it is in vitro ADME. Here is the method:
as §1, §2, §3

For another data set, the target named is CYP2C19 (Homo sapiens (Human), UniProt P33261). Nature of the data set: Human liver microsomal CYP inhibition assay. In kind it is in vitro ADME. To be noted: human liver microsomes, 5-in-1 probe substrate. Here is the method:
as §1, §2, §3

For the next data set, the target named is CYP2D6 (Homo sapiens (Human), UniProt P10635). Nature of the data set: Human liver microsomal CYP inhibition assay. In kind it is in vitro ADME. As to conditions: human liver microsomes, 5-in-1 probe substrate. The protocol:
as §1, §2, §3

The target of a further data set is CYP2C9 (Homo sapiens (Human), UniProt P11712). Nature of the data set: Human liver microsomal CYP inhibition assay. In kind it is in vitro ADME. As to conditions: human liver microsomes, 5-in-1 probe substrate. Here is the method:
as §1, §2, §3

The structures appear in SMILES notation.

Sequence of CYP2C19 (P33261 whole entry): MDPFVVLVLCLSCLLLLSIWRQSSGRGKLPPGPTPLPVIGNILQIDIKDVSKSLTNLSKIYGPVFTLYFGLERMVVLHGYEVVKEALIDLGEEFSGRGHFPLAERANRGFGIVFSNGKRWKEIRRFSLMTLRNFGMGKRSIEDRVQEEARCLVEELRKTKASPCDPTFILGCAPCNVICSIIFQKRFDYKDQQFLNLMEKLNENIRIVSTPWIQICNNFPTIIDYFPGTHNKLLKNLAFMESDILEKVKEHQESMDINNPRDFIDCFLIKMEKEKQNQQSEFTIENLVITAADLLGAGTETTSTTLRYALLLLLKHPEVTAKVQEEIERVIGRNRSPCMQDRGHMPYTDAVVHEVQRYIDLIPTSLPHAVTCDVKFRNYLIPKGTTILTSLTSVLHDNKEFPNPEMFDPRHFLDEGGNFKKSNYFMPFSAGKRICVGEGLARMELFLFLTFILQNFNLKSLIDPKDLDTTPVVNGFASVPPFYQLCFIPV
Sequence of CYP2D6 (P10635 whole entry): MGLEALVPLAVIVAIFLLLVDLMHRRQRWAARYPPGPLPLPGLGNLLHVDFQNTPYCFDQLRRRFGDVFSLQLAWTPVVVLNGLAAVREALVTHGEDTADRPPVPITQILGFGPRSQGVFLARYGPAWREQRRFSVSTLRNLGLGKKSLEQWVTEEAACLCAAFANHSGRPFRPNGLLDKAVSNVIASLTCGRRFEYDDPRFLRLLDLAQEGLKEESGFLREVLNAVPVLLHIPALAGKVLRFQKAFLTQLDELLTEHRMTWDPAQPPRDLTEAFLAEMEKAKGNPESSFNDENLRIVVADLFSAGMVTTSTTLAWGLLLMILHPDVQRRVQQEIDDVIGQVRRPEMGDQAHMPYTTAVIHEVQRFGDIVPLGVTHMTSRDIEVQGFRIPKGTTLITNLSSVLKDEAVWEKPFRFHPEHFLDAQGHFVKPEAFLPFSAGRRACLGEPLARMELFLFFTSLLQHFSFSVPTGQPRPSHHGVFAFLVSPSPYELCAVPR
Sequence of CYP2C9 (P11712 whole entry): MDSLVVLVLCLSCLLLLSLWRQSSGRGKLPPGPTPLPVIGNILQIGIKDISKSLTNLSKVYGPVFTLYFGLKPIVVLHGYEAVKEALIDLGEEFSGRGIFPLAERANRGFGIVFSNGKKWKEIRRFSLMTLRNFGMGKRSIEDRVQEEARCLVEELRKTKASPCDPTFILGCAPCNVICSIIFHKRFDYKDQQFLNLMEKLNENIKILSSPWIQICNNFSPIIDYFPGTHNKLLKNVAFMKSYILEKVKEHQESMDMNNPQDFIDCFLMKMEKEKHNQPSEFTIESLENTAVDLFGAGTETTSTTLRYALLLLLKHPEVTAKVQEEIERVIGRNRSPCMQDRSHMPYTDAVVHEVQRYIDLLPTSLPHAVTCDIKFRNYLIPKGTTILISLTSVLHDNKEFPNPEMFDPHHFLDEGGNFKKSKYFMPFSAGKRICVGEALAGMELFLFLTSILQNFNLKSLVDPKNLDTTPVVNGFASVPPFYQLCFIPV
Sequence of CYP1A2 (P05177 whole entry): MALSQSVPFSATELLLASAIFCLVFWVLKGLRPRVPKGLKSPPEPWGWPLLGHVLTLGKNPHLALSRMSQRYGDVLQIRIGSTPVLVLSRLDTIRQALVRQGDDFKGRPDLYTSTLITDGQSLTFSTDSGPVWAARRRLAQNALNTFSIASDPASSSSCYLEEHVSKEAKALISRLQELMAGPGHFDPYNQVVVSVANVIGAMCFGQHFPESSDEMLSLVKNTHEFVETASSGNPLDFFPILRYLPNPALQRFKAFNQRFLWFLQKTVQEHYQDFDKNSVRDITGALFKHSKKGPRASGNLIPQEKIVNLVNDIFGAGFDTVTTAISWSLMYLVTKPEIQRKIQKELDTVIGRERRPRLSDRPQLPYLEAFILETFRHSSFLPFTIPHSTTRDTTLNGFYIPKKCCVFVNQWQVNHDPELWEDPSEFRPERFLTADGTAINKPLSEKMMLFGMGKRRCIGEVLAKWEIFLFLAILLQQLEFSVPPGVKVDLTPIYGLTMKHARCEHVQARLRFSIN
Sequence of CYP3A4 (P08684 whole entry): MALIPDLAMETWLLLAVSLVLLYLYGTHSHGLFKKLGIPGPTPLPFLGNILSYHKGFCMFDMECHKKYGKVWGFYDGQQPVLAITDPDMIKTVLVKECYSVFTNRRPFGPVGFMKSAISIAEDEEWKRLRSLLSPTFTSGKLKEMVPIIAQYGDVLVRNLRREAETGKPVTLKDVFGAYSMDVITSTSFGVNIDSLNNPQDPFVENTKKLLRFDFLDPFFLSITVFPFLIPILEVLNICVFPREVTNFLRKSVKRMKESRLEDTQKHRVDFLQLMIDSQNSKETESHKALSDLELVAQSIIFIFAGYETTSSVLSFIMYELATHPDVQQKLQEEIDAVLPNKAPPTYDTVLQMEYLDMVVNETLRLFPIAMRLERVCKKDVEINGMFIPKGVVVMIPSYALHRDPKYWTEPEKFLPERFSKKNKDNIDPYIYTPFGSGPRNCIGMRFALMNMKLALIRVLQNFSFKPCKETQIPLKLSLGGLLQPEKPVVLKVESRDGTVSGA

For `Cl.Cn1nc(-c2ccc(OC/C(=C/F)CN)cc2)nc1C(F)F` [WX126], the “Liver Concentration” value in data set [1] (@1.0 hour) turned out to be 13520; in data set [1] (@4.0 hour) it was 3364. Further, the “Liver Concentration/Plasma Concentration ratio” value came to 15 in data set [1] (@1.0 hour) and 17 in data set [1] (@4.0 hour). Besides, the “Plasma Concentration” value was found to be 934 in data set [1] (@1.0 hour) and 190 in data set [1] (@4.0 hour). Besides, the IC50 on VAP-1/SSAO was 0.0003 µM; against CYP1A2 it was 5 µM; against CYP3A4, > 50 µM; at CYP2C19, 17 µM; on CYP2D6 it was 36 µM; against CYP2C9 it was 24 µM.

For the origin of these results see US11001563B2, “SSAO inhibitor” (SHANDONG DANHONG PHARMACEUTICAL CO., LTD., priority 2017, dated 2021).
